Assay results from ChEMBL document CHEMBL5113469, “Synthesis and biological evaluation of a tumor-selective degrader of PARP1” (Bioorg Med Chem, 2022).
Active and inactive are the calls of the source. No cut-off for these calls is given here.

How the values were obtained:
CAPAN-1 = experiment: Antiproliferative activity against human CAPAN-1 cells assessed as cell growth inhibition incubated for 5 days by MTT assay; type: functional, cell-based; settings: CAPAN-1, 120 h
MDA-MB-468 = experiment: Antiproliferative activity against human MDA-MB-468 cells assessed as cell growth inhibition incubated for 5 days by MTT assay; type: functional, cell-based; settings: MDA-MB-468, 120 h
MDA-MB-436 = experiment: Antiproliferative activity against human MDA-MB-436 cells assessed as cell growth inhibition incubated for 5 days by MTT assay; type: functional, cell-based; settings: MDA-MB-436, 120 h
MDA-MB-231 = experiment: Antiproliferative activity against human MDA-MB-231 cells assessed as cell growth inhibition incubated for 5 days by MTT assay; type: functional, cell-based; settings: MDA-MB-231, 120 h
[1] = target: T1, Protein cereblon/Poly [ADP-ribose] polymerase 1 (Homo sapiens, UniProt P09874+Q96SW2); experiment: PROTAC activity at CRBN/PARP1 in human L02 cells assessed as induction of PARP1 degradation incubated for 24 hrs by western blot analysis; type: cell-based
Target sequence in this assay (P09874 whole entry): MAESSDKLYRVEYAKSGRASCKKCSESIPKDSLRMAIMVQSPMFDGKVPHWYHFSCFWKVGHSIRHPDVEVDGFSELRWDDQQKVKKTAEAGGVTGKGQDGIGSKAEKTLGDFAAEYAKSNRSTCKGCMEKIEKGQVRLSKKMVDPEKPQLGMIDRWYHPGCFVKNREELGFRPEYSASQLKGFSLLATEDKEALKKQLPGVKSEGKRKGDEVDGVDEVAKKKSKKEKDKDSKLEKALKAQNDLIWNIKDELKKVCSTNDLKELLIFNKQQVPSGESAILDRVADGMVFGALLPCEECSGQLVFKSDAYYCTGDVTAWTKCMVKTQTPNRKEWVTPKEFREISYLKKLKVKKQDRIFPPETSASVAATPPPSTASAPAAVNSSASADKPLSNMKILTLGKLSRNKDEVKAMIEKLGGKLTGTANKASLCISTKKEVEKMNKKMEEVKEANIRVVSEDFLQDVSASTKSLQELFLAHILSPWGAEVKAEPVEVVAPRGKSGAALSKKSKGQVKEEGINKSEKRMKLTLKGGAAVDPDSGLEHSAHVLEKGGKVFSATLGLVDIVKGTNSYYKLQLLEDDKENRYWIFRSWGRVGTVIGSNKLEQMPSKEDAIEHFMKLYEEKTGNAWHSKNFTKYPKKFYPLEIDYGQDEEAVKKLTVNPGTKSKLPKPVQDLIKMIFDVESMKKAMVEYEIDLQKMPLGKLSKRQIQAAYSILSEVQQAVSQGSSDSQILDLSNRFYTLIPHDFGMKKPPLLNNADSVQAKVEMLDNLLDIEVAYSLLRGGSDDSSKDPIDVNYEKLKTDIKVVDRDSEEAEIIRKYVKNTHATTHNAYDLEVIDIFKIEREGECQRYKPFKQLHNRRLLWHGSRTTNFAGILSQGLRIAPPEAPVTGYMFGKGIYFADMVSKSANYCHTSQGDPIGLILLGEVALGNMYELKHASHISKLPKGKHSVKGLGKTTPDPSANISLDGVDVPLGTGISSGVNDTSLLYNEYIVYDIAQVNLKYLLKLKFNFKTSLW
Target sequence in this assay (Q96SW2 whole entry): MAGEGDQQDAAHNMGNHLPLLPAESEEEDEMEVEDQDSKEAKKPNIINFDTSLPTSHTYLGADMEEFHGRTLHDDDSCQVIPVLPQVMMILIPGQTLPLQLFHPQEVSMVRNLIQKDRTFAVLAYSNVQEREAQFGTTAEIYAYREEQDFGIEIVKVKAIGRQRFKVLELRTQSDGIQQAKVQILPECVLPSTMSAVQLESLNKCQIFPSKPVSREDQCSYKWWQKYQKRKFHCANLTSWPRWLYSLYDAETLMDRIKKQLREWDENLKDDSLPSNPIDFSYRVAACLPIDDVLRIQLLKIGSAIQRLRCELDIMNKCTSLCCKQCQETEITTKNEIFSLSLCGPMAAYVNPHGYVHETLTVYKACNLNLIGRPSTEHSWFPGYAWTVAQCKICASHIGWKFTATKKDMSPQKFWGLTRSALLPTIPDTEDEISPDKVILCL

[2] = target: T1, Protein cereblon/Poly [ADP-ribose] polymerase 1; experiment: PROTAC activity at CRBN/PARP1 in human MDA-MB-231 cells assessed as induction of PARP1 degradation at 1 uM incubated for 24 hrs by western blot analysis; type: cell-based
Target sequence in this assay (P09874 2-1014 limits assumed): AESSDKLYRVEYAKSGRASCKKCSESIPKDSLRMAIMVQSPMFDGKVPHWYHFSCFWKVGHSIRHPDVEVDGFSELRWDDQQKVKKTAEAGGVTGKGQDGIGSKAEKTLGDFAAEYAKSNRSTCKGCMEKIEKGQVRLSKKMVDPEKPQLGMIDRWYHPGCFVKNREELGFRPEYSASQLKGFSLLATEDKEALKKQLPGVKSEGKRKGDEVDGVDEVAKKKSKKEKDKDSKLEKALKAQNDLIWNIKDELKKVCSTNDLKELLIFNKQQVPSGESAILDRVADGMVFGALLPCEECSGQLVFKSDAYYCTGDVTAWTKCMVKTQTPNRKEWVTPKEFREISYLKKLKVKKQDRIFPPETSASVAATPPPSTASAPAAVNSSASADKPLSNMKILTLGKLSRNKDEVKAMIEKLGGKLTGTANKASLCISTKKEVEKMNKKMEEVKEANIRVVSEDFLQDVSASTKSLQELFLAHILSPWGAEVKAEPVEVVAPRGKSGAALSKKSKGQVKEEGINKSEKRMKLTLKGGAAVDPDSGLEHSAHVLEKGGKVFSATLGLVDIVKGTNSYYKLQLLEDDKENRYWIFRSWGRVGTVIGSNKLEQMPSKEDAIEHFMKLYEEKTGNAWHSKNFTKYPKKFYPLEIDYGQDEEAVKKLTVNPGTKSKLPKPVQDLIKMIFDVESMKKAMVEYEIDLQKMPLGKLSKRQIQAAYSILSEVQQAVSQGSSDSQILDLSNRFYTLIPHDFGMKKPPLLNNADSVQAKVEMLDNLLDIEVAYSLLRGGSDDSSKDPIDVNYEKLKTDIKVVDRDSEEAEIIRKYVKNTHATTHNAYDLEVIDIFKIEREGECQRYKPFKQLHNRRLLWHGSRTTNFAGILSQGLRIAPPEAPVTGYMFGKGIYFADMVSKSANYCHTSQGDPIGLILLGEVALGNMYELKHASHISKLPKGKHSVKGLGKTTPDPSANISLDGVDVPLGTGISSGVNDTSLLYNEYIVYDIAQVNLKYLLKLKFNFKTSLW
Target sequence in this assay (Q96SW2 whole entry partner): as the sequence (Q96SW2 whole entry) above

| IC50 (MDA-MB-468) [µM] | IC50 (MDA-MB-436) [nM] | IC50 (MDA-MB-231) [µM] | DC50 [1] [nM] | Activity [2] | SMILES | IC50 (CAPAN-1) [nM] |
| --- | --- | --- | --- | --- | --- | --- |
| > 20 | > 10000 | > 20 |  |  | O=C1CCC(N2C(=O)c3cccc(NC(=O)CNCCC(=O)N4CCN(C(=O)c5cc(Cc6n[nH]c(=O)c7ccccc67)ccc5F)CC4)c3C2=O)C(=O)N1 (stereo unspecified) | > 10000 |
| 5.03 | 76 | 7.25 |  |  | O=C1CCC(N2C(=O)c3cccc(NC(=O)CNCCCCCCCCCCCCC(=O)N4CCN(C(=O)c5cc(Cc6n[nH]c(=O)c7ccccc67)ccc5F)CC4)c3C2=O)C(=O)N1 (stereo unspecified) | 240 |
| > 20 | 6800 | > 20 |  |  | O=C1CCC(N2C(=O)c3cccc(NC(=O)CNCCCC(=O)N4CCN(C(=O)c5cc(Cc6n[nH]c(=O)c7ccccc67)ccc5F)CC4)c3C2=O)C(=O)N1 (stereo unspecified) | 8640 |
| > 20 | > 10000 | > 20 |  |  | O=C1CCC(N2C(=O)c3cccc(NC(=O)CNCC(=O)N4CCN(C(=O)c5cc(Cc6n[nH]c(=O)c7ccccc67)ccc5F)CC4)c3C2=O)C(=O)N1 (stereo unspecified) | > 10000 |
| 3.11 | 34 | 4.13 |  |  | O=C1CCC(N2C(=O)c3cccc(NC(=O)CNCCCCCCCCCCCC(=O)N4CCN(C(=O)c5cc(Cc6n[nH]c(=O)c7ccccc67)ccc5F)CC4)c3C2=O)C(=O)N1 (stereo unspecified) | 65 |
|  |  |  | 2.89 |  | O=C(CCCCCCCCCCC(=O)N1CCN(C(=O)c2cc(Cc3n[nH]c(=O)c4ccccc34)ccc2F)CC1)NCCNc1cccc2c1C(=O)N(C1CCC(=O)NC1=O)C2=O (stereo unspecified) |  |
| 6.08 | 210 | 7.54 |  | Active | O=C1CCC(N2C(=O)c3cccc(NC(=O)CNCCCCCCCCC(=O)N4CCN(C(=O)c5cc(Cc6n[nH]c(=O)c7ccccc67)ccc5F)CC4)c3C2=O)C(=O)N1 (stereo unspecified) | 590 |
